Assay results published in patent US12091426B2, “Bifunctional degraders of hematopoietic progenitor kinase and therapeutic uses thereof” (Nurix Therapeutics, Inc., priority 2021, dated 2024).

Biological target: T1, HPK1 (Homo sapiens, UniProt Q92918)
T1 construct: A HiBiT tag was introduced by CRISPR on the N terminus of HPK1 in Jurkat cells; host or cells: Jurkat cells (ATCC TIB-152), monoclonal line with CRISPR knock-in of HiBiT at the endogenous HPK1 locus
Assay: HPK1 Cellular HiBit Degradation Assay
Format: cell-based
Conditions: HiBiT HPK1 Jurkat cells, 24 hrs; for DC50: concentration at which 50% of HPK1 was remaining, read-out: DC50 Category; for Dmax: Jurkat, maximum degradation vs DMSO vehicle control, read-out: Dmax Category
Experimental: HPK1 Cellular HiBit Degradation Assay
A HiBiT tag was introduced by CRISPR on the N terminus of HPK1 in Jurkat cells (ATCC® TIB-152) to allow quantitation of HPK1 protein levels in a monoclonal human cell line. Cells were plated at 1×10^6 cells/mL, 30 uL/well (3×10^4 cells/well) in complete RPMI 1640 (10% heat inactivated FBS, 1% L-glutamine) in 384-well assay plates (Corning, cat. no. 3570). HPK1 chimeric targeting molecules (CTMs) were added in an 11 point dilution series (11-point, 3.16-fold) with a final assay concentration range of 10 uM to 0.1 nM. The parental Jurkat cell line, with no HiBiT insertion, was included in the assay as a background control. Cell treated with a DMSO vehicle control was used to determine the maximum signal defining 100% HPK1 in the cell. Cells were incubated for 24 hrs at 37° C./5% CO2. Following incubation, 30 uL of complete Nano-Glo HiBiT Lytic Detection Reagent (Promega cat. no. N3040) was added. Cells were incubated for 10 min at room temperature and luminescence was read on an EnVision plate reader (Perkin Elmer, 0.1 sec per well). Viability was assessed in the same plate using Cell Titer Fluor (Promega) and read on an EnVision plate reader to ensure results were not the effect of cytotoxicity. Percent HPK1 remaining per sample was calculated as follows:
[formula] % HPK1 remaining values were plotted as a function of compound concentration and curves were fit using the Prism (GraphPad) equation “log(inhibitor) vs response−Variable slope (four parameters)”. Dmax values were calculated by identifying the lowest % remaining and subtracting from 100. DC50 values were determined by extrapolating from the curve the concentration at which 50% of HPK1 was remaining based on the DMSO control.
HiBiT HPK1 Jurkat cell lines were used to evaluate the total protein levels of HPK1 in a robust human cellular high throughput format. The level of HPK1 remaining following treatment with HPK1 CTMs is reported as Dmax (maximum degradation) achieved at 24 hours when compared to vehicle treated controls. […] These decreases were not a result of cytotoxicity measured by a viability assessment.

T1 sequence (Q92918 whole entry): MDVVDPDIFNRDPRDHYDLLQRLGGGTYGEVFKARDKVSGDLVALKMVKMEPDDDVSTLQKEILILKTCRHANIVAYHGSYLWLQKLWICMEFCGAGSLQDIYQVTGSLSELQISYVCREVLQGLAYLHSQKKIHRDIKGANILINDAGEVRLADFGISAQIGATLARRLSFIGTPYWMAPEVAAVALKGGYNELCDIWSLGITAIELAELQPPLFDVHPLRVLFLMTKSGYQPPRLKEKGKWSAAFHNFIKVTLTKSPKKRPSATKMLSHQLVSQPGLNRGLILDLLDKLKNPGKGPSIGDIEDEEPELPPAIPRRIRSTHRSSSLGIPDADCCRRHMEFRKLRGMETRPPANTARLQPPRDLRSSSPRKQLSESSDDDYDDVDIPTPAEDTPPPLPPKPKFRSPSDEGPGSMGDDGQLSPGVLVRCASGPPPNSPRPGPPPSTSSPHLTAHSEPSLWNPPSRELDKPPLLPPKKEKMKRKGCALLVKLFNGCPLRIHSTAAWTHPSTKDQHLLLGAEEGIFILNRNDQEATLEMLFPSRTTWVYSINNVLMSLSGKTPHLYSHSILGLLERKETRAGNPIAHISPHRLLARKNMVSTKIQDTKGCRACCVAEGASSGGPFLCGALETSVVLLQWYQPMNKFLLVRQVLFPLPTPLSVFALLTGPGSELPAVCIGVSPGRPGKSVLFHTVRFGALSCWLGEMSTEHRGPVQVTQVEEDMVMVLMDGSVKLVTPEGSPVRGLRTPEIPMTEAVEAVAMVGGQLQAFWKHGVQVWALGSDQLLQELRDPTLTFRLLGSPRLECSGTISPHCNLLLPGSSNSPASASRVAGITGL

DC50 [nM]	Dmax [%]	SMILES
100 to 500	70 to 85	CC(C)n1cnc2cc(-c3ccc4c(c3)N([C@H]3C[C@@H](N5CCCCC5)C3)C(=O)C43CCN(C(=O)[C@@H]4CCN(C(=O)[C@H]5CC[C@H](Nc6cc(C7CCC(=O)NC7=O)ccn6)CC5)C4)CC3)nc(Nc3ccccc3F)c21 (mixture of isomers) [Example 1, (3RS)-3-(2-{[(1R,4R)-4-[(3R)-3-[(6-{4-[(2-fluorophenyl)amino]-3-(propan-2-yl)-3H-imidazo[4,5-c]pyridin-6-yl}-2-oxo-1-[(1S,3S)-3-(piperidin-1-yl)cyclobutyl]-1,2-dihydrospiro[indole-3,4′-piperidin]-1′-yl)carbonyl]pyrrolidine-1-carbonyl]cyclohexyl]amino}pyridin-4-yl)piperidine-2,6-dione]
< 100	70 to 85	CC(C)n1cnc2cc(-c3ccc4c(c3)N([C@H]3C[C@@H](N5CCCCC5)C3)C(=O)C43CCN(C(=O)[C@@H]4CCN(C(=O)[C@H]5CC[C@H](Nc6ccc(C7CCC(=O)NC7=O)cc6)CC5)C4)CC3)nc(NC3CC3)c21 (mixture of isomers) [Example 2, (3RS)-3-(4-{[(1R,4R)-4-[(3R)-3-({6-[4-(cyclopropylamino)-3-(propan-2-yl)-3H-imidazo[4,5-c]pyridin-6-yl]-2-oxo-1-[(1S,3S)-3-(piperidin-1-yl)cyclobutyl]-1,2-dihydrospiro[indole-3,4′-piperidin]-1′-yl}carbonyl)pyrrolidine-1-carbonyl]cyclohexyl]amino}phenyl)piperidine-2,6-dione]
< 100	> 85	CC(C)n1cnc2cc(-c3ccc4c(c3)N([C@H]3C[C@@H](N5CCCCC5)C3)C(=O)C43CCN(C(=O)[C@@H]4CCN(C(=O)[C@H]5CC[C@H](Nc6ccc(C7CCC(=O)NC7=O)cc6)CC5)C4)CC3)nc(Nc3ccccc3F)c21 (mixture of isomers) [Example 3, (3RS)-3-(4-{[(1R,4R)-4-[(3R)-3-[(6-{4-[(2-fluorophenyl)amino]-3-(propan-2-yl)-3H-imidazo[4,5-c]pyridin-6-yl}-2-oxo-1-[(1S,3S)-3-(piperidin-1-yl)cyclobutyl]-1,2-dihydrospiro[indole-3,4′-piperidin]-1′-yl)carbonyl]pyrrolidine-1-carbonyl]cyclohexyl]amino}phenyl)piperidine-2,6-dione]
100 to 500	70 to 85	CC(C)n1cnc2cc(-c3ccc4c(c3)N([C@H]3C[C@@H](N5CCCCC5)C3)C(=O)C43CCN(C(=O)[C@@H]4CCN(C(=O)[C@H]5CC[C@H](Nc6ccc(C7CCC(=O)NC7=O)cn6)CC5)C4)CC3)nc(NC3CC3)c21 (mixture of isomers) [Example 5, (3RS)-3-(6-{[(1R,4R)-4-[(3R)-3-({6-[4-(cyclopropylamino)-3-(propan-2-yl)-3H-imidazo[4,5-c]pyridin-6-yl]-2-oxo-1-[(1S,3S)-3-(piperidin-1-yl)cyclobutyl]-1,2-dihydrospiro[indole-3,4′-piperidin]-1′-yl}carbonyl)pyrrolidine-1-carbonyl]cyclohexyl]amino}pyridin-3-yl)piperidine-2,6-dione]
100 to 500	70 to 85	CC(C)n1cnc2cc(-c3ccc4c(c3)N([C@H]3C[C@@H](N5CCCCC5)C3)C(=O)C43CCN(C(=O)[C@@H]4CCN(C(=O)[C@H]5CC[C@H](Nc6ccc(C7CCC(=O)NC7=O)cn6)CC5)C4)CC3)nc(Nc3ccccc3F)c21 (mixture of isomers) [Example 6, (3RS)-3-(6-{1[(1R,4R)-4-[(3R)-3-[(6-{4-[(2-fluorophenyl)amino]-3-(propan-2-yl)-3H-imidazo[4,5-c]pyridin-6-yl}-2-oxo-1-[(1S,3S)-3-(piperidin-1-yl)cyclobutyl]-1,2-dihydrospiro[indole-3,4′-piperidin]-1′-yl)carbonyl]pyrrolidine-1-carbonyl]cyclohexyl]amino}pyridin-3-yl)piperidine-2,6-dione]
500 to 1000	50 to 70	CC(C)n1cnc2cc(-c3ccc4c(c3)N([C@H]3C[C@@H](N5CCCCC5)C3)C(=O)C43CCN(C(=O)[C@@H]4CCN(C(=O)[C@H]5CC[C@H](Nc6ccc(C(=O)NC7CCC(=O)NC7=O)nc6)CC5)C4)CC3)nc(Nc3ccccc3F)c21 (mixture of isomers) [Example 7, N-[(3RS)-2,6-dioxopiperidin-3-yl]-5-{1[(1R,4R)-4-[(3R)-3-[(6-{4-[(2-fluorophenyl)amino]-3-(propan-2-yl)-3H-imidazo[4,5-c]pyridin-6-yl}-2-oxo-1-[(1S,3S)-3-(piperidin-1-yl)cyclobutyl]-1,2-dihydrospiro[indole-3,4′-piperidin]-1′-yl)carbonyl]pyrrolidine-1-carbonyl]cyclohexyl]amino}pyridine-2-carboxamide]
500 to 1000	70 to 85	CC(C)n1cnc2cc(-c3ccc4c(c3)N([C@H]3C[C@@H](N5CCCCC5)C3)C(=O)C43CCN(C(=O)[C@@H]4CCN(C(=O)[C@H]5CC[C@H](Nc6cccc(C7CCC(=O)NC7=O)n6)CC5)C4)CC3)nc(Nc3ccccc3F)c21 (mixture of isomers) [Example 8, (3RS)-3-(6-{1[(1R,4R)-4-[(3R)-3-[(6-{4-[(2-fluorophenyl)amino]-3-(propan-2-yl)-3H-imidazo[4,5-c]pyridin-6-yl}-2-oxo-1-[(1S,3S)-3-(piperidin-1-yl)cyclobutyl]-1,2-dihydrospiro[indole-3,4′-piperidin]-1′-yl)carbonyl]pyrrolidine-1-carbonyl]cyclohexyl]amino}pyridin-2-yl)piperidine-2,6-dione]
100 to 500	> 85	CC(C)n1cnc2cc(-c3ccc4c(c3)N([C@H]3C[C@@H](N5CCCCC5)C3)C(=O)C43CCN(C(=O)[C@@H]4CCN(C(=O)[C@H]5CC[C@H](Nc6cccc7c6C(=O)N(C6CCC(=O)NC6=O)C7=O)CC5)C4)CC3)nc(Nc3ccccc3F)c21 (mixture of isomers) [Example 9, 2-[(3RS)-2,6-dioxopiperidin-3-yl]-4-{[(1R,4R)-4-[(3R)-3-[(6-{4-[(2-fluorophenyl)amino]-3-(propan-2-yl)-3H-imidazo[4,5-c]pyridin-6-yl}-2-oxo-1-[(1S,3S)-3-(piperidin-1-yl)cyclobutyl]-1,2-dihydrospiro[indole-3,4′-piperidin]-1′-yl)carbonyl]pyrrolidine-1-carbonyl]cyclohexyl]amino}-2,3-dihydro-1H-isoindole-1,3-dione]
< 100	70 to 85	CC(C)n1cnc2cc(-c3ccc4c(c3)N([C@H]3C[C@@H](N5CCCCC5)C3)C(=O)C43CCN(C(=O)[C@@H]4CCN(C(=O)[C@H]5CC[C@H](Nc6cccc7c6C(=O)N(C6CCC(=O)NC6=O)C7=O)CC5)C4)CC3)nc(NC3CC3)c21 (mixture of isomers) [Example 10, 2-[(3RS)-2,6-dioxopiperidin-3-yl]-4-{[(1R,4R)-4-[(3R)-3-({6-[4-(cyclopropylamino)-3-(propan-2-yl)-3H-imidazo[4,5-c]pyridin-6-yl]-2-oxo-1-[(1S,3S)-3-(piperidin-1-yl)cyclobutyl]-1,2-dihydrospiro[indole-3,4′-piperidin]-1′-yl}carbonyl)pyrrolidine-1-carbonyl]cyclohexyl]amino}-2,3-dihydro-1H-isoindole-1,3-dione]
